Test results as given in patent publication US9987276B2 (Celgene CAR LLC, priority 2008, dated 2018).
Entries after “also recorded” stand apart in the source; their conditions may differ.

Tests used:
Erbb4 kinase domain = Erbb4 kinase domain (Homo sapiens (Human), UniProt Q15303); test: Mass spectrometry for ERBB4; assay type: binding; settings: 60 minutes at 10-fold excess of compound
Method: Erbb4 kinase domain (Upstate) was incubated with compound for 60 minutes at 10-fold excess of compound I-4 and I-11 to protein. 1 μl aliquots of the samples (total volume of 4.24 ul) were diluted with 10 μl of 0.1% TFA prior to micro C4 ZipTipping directly onto the MALDI target using Sinapinic acid as the desorption matrix (10 mg/ml in 0.1% TFA:Acetonitrile 50:50). For intact protein mass measurement the instrument was set in Linear mode using a pulsed extraction setting of 16,952 for the myoglobin standard used to calibrate the instrument (Shimadzu Axima TOF^2).
Intact ErbB4 protein occurs at MH+ of 35850 with corresponding sinapinic (matrix) adducts occurring about 200 Da higher. A stochiometric incorporation of the test compound (I-4 and I-11) (Mw of 410 Da) produced a new mass peak which is approximately 410 Da higher (MH+ of 36260).

BTK [1] = target: T1, BTK (Homo sapiens (Human), UniProt Q06187); test: BTK occupancy from in vitro samples by ELISA (Ramos cells); assay type: cell-based; settings: ELISA with probe I-215
Method: In order to determine the amount of free BTK in cell or tissue lysates, an ELISA protocol was employed that utilizes a biotinylated probe compound that binds only to free, unoccupied BTK. The conjugated biotin is captured on a streptavidin-coated ELISA plate and detected with a mouse anti-BTK antibody (Becton Dickinson, Franklin Lakes, N.J., USA) and a secondary goat anti-mouse HRP antibody (Zymed, South San Francisco, Calif., USA).
All samples were prepared with equal concentrations of Biorad lysis buffer (Hercules, Calif., USA), 0.5% bovine serum albumin in PBS with 0.05% Tween-20 to give a final concentration of 1 μM I-215. Samples were incubated in a mixing plate for 1 hr at room temperature while shaking to allow probe compound I-215 to bind to free BTK. After incubation with I-215, samples were added to a washed, streptavidin-coated ELISA plate (Pierce, Rockford, Ill., USA) and incubated for 1 hr at room temperature while shaking. The plate was then washed with PBS containing 0.05% Tween-20 using an automatic plate washer. Anti-BTK antibody was prepared at 1:1000 dilution in 0.5% BSA in PBS (0.05% Tween-20) and added to the ELISA plate. The plate was incubated for 1 hr at room temperature while shaking. The plate was washed as described above and the secondary HRP antibody was prepared at 1:5000 dilution in 0.5% BSA in PBS (0.05% Tween-20). The plate was incubated and washed as described above. TMB was added to the plate, and OD650 was monitored until reaching 1 OD unit. The reaction was then stopped with addition of H2SO4. The plate was analyzed using Gen 5 software, and a 4 Parameter Logistic curve was employed to quantitate samples. Recombinant BTK (Invitrogen, Carlsbad, Calif., USA) was used for the standard curve.
A concentration designated as “A” is greater than 1 nM; a concentration designated as “B” is greater than 10 nM; and a concentration designated as “C” is greater than 50 nM.

BTK [2] = target: T1, BTK; test: Mass spectrometry for BTK (intact protein); assay type: binding; settings: 1 hr, 10× fold excess of compound
Method: Intact BTK was incubated for 1 hr at a 10× fold excess of I-7 to protein. Aliquots (2 μl) of the samples were diluted with 10 μl of 0.1% TFA prior to micro C4 ZipTipping directly onto the MALDI target using Sinapinic acid as the desorption matrix (10 mg/ml in 0.1% TFA:Acetonitrile 20:80).

BTK [3] = target: T1, BTK; test: Washout experiment with I-7 and probe compound I-215 in Ramos cells; assay type: cell-based; settings: 0.1 μM for 1 hour
JAK3 kinase = JAK3 kinase (Homo sapiens (Human), UniProt P52333); test: Mass spectrometry for Janus-3 kinase (JAK3); assay type: binding; settings: 3 hrs at 10× excess, tryptic digest
Method: JAK3 kinase (33 pmols; Invitrogen) was incubated with (I-7) (327 pmols) for 3 hrs at 10× excess prior to tryptic digestion. Iodoacetamide was used as the alkylating agent after compound incubation. For tryptic digests a 5 ul aliquot (5.5 pmols) was diluted with 15 ul of 0.1% TFA prior to micro C18 Zip Tipping directly onto the MALDI target using alpha cyano-4-hydroxy cinnamic acid as the matrix (5 mg/ml in 0.1% TFA:Acetonitrile 50:50).
As depicted in FIG. 11, the expected peptide ([…]) to be modified was immediately evident as the largest peak at MH+ of 1725.88. This is the mass to be expected when compound I-7, with an adduct mass of 345.16, is added to the peptide mass of 1380.70. […] There was also evidence for a number of other modified peptides, however, their signals were low.
To further verify the presence of the modified peptides with compound I-7, the peptides at MH+ of 1725.88 and 1118.55 were subjected to PSD (MS/MS) analysis. A correlational analysis with the homosapien database identified the correct peptides as being modified by I-7.
For tryptic digests the instrument was set in Reflectron mode with a pulsed extraction setting of 2200. Calibration was done using the Laser Biolabs Pep Mix standard ([…], 1296.69, 1672.92, 2093.09, 2465.20). […]

PG-PS arthritis model = assay type: in vivo; settings: female Lewis rats, oral gavage daily through day 22
Method: On day 0, female Lewis rats received an intraperitoneal (IP) bolus of peptidoglycan-polysaccharide (PG-PS) in an amount of 15 μg/g rat body weight. Baseline control rats received an IP bolus of PBS. The vehicle and treatment groups were dosed via oral gavage just prior to PG-PS administration. Treatment with vehicle and compound continued each day through day 22. Maximal lateral ankle width measurements of both rear limbs were collected with a caliper throughout the study. On day 23, study was terminated and the final change in ankle swelling was calculated and compared to vehicle controls.

T1 sequence (Q06187 whole entry): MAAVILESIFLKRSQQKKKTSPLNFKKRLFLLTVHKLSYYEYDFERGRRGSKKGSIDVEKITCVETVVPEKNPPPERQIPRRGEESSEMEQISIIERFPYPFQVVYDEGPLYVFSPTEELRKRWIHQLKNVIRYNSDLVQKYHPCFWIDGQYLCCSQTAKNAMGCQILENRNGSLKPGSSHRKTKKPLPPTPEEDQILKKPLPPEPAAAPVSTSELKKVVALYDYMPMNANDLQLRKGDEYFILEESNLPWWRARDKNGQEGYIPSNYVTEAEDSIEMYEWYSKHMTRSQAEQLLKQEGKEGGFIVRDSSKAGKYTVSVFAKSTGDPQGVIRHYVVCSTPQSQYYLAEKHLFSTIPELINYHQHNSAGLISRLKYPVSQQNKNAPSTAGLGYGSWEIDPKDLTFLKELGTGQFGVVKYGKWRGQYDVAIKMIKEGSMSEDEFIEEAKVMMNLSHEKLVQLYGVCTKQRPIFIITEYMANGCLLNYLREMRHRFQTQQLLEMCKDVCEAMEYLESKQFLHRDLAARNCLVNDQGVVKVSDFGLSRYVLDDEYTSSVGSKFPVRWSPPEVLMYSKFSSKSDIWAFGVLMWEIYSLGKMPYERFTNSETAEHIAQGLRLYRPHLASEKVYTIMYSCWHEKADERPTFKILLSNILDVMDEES
JAK3 kinase, sequence (P52333 whole entry): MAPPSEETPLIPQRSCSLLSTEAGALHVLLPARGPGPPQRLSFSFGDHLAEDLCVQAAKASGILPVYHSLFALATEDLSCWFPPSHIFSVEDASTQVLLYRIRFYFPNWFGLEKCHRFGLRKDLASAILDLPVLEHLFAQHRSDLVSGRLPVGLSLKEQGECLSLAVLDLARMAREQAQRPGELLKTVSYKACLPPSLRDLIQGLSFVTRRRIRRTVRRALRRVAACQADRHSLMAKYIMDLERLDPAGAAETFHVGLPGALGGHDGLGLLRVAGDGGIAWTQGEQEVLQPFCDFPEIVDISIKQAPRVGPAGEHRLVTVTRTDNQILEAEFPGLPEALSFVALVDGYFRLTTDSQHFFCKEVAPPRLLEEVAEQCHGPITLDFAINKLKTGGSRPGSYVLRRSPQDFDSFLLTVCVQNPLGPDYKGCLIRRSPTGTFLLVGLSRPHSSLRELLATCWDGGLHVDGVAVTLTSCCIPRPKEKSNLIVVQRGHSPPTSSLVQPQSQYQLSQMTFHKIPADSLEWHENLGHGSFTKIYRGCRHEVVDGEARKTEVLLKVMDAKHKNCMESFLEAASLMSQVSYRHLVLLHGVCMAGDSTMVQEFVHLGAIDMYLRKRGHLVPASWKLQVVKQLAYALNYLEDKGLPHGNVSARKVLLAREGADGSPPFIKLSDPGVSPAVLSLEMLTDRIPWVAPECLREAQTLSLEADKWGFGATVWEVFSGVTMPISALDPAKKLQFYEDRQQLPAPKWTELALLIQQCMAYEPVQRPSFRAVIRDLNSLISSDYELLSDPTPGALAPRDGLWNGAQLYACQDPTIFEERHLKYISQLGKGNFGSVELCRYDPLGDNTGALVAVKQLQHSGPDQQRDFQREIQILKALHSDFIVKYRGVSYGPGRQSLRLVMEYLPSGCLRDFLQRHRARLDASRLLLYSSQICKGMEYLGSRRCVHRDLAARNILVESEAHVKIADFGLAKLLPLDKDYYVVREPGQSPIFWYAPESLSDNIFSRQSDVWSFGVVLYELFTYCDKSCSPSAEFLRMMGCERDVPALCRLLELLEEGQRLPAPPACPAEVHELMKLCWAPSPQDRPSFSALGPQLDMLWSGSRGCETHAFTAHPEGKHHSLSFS
Erbb4 kinase domain, sequence (Q15303 718-985): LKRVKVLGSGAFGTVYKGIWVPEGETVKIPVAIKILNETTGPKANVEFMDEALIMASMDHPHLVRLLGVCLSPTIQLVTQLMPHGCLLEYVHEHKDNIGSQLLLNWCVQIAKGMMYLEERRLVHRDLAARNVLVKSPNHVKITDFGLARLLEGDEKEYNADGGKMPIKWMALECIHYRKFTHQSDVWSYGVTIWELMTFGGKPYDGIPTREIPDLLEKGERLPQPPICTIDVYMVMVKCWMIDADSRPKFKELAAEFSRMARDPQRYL

covalent modification of ErbB4 (mass spectrometry) (Erbb4 kinase domain)	>50% occupancy (concentration at which >50% of BTK is occupied) (BTK [1])	>90% occupancy (concentration at which >90% of BTK is occupied) (BTK [1])	time BTK protein remains occupied after compound removal (BTK [3])	SMILES	covalent modification of BTK (mass spectrometry) (BTK [2])	covalent modification of JAK3 (Cys909, peptide LVMEYLPSGCLR) by mass spectrometry (JAK3 kinase)	% inhibition ankle swelling (PG-PS arthritis model)
covalent modification	–	–	–	Cc1cccc(Nc2nc(Nc3cccc(NC(=O)/C=C/CN(C)C)c3)ncc2F)c1 [Compound I-4, (E)-4-(dimethylamino)-N-(3-(5-fluoro-4-(m-tolylamino)pyrimidin-2-ylamino)phenyl)but-2-enamide]	–	–	–
–	A (greater than 1 nM)	B (greater than 10 nM)	over 8 hours	C=CC(=O)Nc1cccc(Nc2nc(Nc3ccccc3)ncc2C)c1 [Compound I-7, N-(3-(5-methyl-2-(phenylamino)pyrimidin-4-ylamino)phenyl) acrylamide]	complete modification; also recorded: covalent modification	not entirely complete; also recorded: covalent modification	77.5%
